Test system: T24 bladder cancer cell lines
Assay: StaRT-PCR gene expression, SC23
Assay type: cell-based, human
Method: FIG. 21 illustrates RT-PCR gene expression analysis. Total RNA form T24 cells was isolated and cDNA was synthesized with 2.5 ug of total RNA. Standardized RT-PCR was performed with GENE system I gene expression kit (Gene Express Inc.). Each kit contains a mixture of the internal competitive templates and the corresponding primers.
Total RNA form T24 cells were isolated after 3h, Oh, 12h, 24h, and 48h exposure to SC23.
StaRT-PCR™ (Standardized Reverse Transcription Polymerase Chain Reaction). First described by Willey et al. ((2004) Methods Mol. Biol. 258:13-41), this technique uses standardized mixtures of competitive templates (CT) as internal standards in generating valid and reproducible numerical gene expression data for multiple genes. After the mRNA was converted to cDNA, the cDNA was mixed with a proprietary Standardized Mixture of Internal Standards™ (SMIS™, GeneExpress, Inc.). In the standard mixture, there is an internal standard CT for each gene to be measured as well as one for a reference gene. (i.e., β-actin, GAPDH). The amplicons produced by StaRT-PCR™ was then separated on capillary electrophoresis. The amount of internal standard CT or NT amplimer was determined by measuring each peak area. All data were then reported as number of molecules of mRNA for gene of interest per 10^6 molecules of reference gene (normalizer gene). Serial dilutions of the SMIS™ allow quantitative measurements over 7 log range of gene expression observed in cells from <10 to 10^7 molecules/10^6 molecules reference gene. Data presented in Table 8 are number of copies that have been normalized against 10^6 molecule of β-actin.

CYP1A2 expression (3 hours): 59.45 molecules/10^6 β-actin
CYP1A2 expression (6 hours): 10 molecules/10^6 β-actin
CYP1A2 expression (12 hours): 69 molecules/10^6 β-actin
CYP1A2 expression (24 hours): 36.62 molecules/10^6 β-actin
CYP1A2 expression (48 hours): 37.48 molecules/10^6 β-actin
SMILES: O=C(NNC(O)c1cc2ccccc2cc1O)c1cc2ccccc2cc1O (stereo not shown) [SC23]
BCL2L1 expression (3 hours): 9449.42 molecules/10^6 β-actin
BCL2 expression (3 hours): 152.37 molecules/10^6 β-actin
CASP1 expression (3 hours): 68.36 molecules/10^6 β-actin
CCNA2 expression (3 hours): 126.84 molecules/10^6 β-actin
CCND3 expression (3 hours): 195.17 molecules/10^6 β-actin
CCNE1 expression (3 hours): 51.36 molecules/10^6 β-actin
CCNG1 expression (3 hours): 2956.79 molecules/10^6 β-actin
CDC2 expression (3 hours): 2365.6 molecules/10^6 β-actin
CDC25C expression (3 hours): 394.83 molecules/10^6 β-actin
CDK7 expression (3 hours): 1068.25 molecules/10^6 β-actin
CDK8 expression (3 hours): 412.64 molecules/10^6 β-actin
CDKN1A expression (3 hours): 11.42 molecules/10^6 β-actin
CDKN1B expression (3 hours): 72.37 molecules/10^6 β-actin
CDKN2A expression (3 hours): 415.63 molecules/10^6 β-actin
CDKN2C expression (3 hours): 458.41 molecules/10^6 β-actin
DAP expression (3 hours): 9037.57 molecules/10^6 β-actin
E2F4 expression (3 hours): 7540.97 molecules/10^6 β-actin
E2F5 expression (3 hours): 268.09 molecules/10^6 β-actin
JUN expression (3 hours): 1846.15 molecules/10^6 β-actin
MAD expression (3 hours): 496.75 molecules/10^6 β-actin
MAP3K14 expression (3 hours): 55.57 molecules/10^6 β-actin
MYC expression (3 hours): 974.69 molecules/10^6 β-actin
NFKB1 expression (3 hours): 2694.24 molecules/10^6 β-actin
PCNA expression (3 hours): 8574.58 molecules/10^6 β-actin
PTGS2 expression (3 hours): 82.69 molecules/10^6 β-actin
RB1 expression (3 hours): 7076.29 molecules/10^6 β-actin
RBL2 expression (3 hours): 1287.91 molecules/10^6 β-actin
TGFBR2 expression (3 hours): 1420.02 molecules/10^6 β-actin
TGIF expression (3 hours): 3112.84 molecules/10^6 β-actin
TNFAIP1 expression (3 hours): 4737.75 molecules/10^6 β-actin
TNFRSF1A expression (3 hours): 15.56 molecules/10^6 β-actin
TNFSF10 expression (3 hours): 82.86 molecules/10^6 β-actin
TP53 expression (3 hours): 567.53 molecules/10^6 β-actin
TRAF4 expression (3 hours): 69.06 molecules/10^6 β-actin
BCL2L1 expression (6 hours): 10428.62 molecules/10^6 β-actin
BCL2 expression (6 hours): 121.2 molecules/10^6 β-actin
CASP1 expression (6 hours): 80.87 molecules/10^6 β-actin
CCNA2 expression (6 hours): 348.88 molecules/10^6 β-actin
CCND3 expression (6 hours): 175.1 molecules/10^6 β-actin
CCNE1 expression (6 hours): 33.08 molecules/10^6 β-actin
CCNG1 expression (6 hours): 6161.69 molecules/10^6 β-actin
CDC2 expression (6 hours): 1650.84 molecules/10^6 β-actin
CDC25C expression (6 hours): 606.06 molecules/10^6 β-actin
CDK7 expression (6 hours): 778.75 molecules/10^6 β-actin
CDK8 expression (6 hours): 354.76 molecules/10^6 β-actin
CDKN1A expression (6 hours): 27.06 molecules/10^6 β-actin
CDKN1B expression (6 hours): 390.76 molecules/10^6 β-actin
CDKN2A expression (6 hours): 5611.87 molecules/10^6 β-actin
CDKN2C expression (6 hours): 781.31 molecules/10^6 β-actin
DAP expression (6 hours): 12572.87 molecules/10^6 β-actin
E2F4 expression (6 hours): 1285.78 molecules/10^6 β-actin
E2F5 expression (6 hours): 243.27 molecules/10^6 β-actin
JUN expression (6 hours): 4168.04 molecules/10^6 β-actin
MAD expression (6 hours): 763.05 molecules/10^6 β-actin
MAP3K14 expression (6 hours): 68.69 molecules/10^6 β-actin
MYC expression (6 hours): 2650.11 molecules/10^6 β-actin
NFKB1 expression (6 hours): 3274.07 molecules/10^6 β-actin
PCNA expression (6 hours): 6433.1 molecules/10^6 β-actin
PTGS2 expression (6 hours): 157.43 molecules/10^6 β-actin
RB1 expression (6 hours): 5973.3 molecules/10^6 β-actin
RBL2 expression (6 hours): 2112.09 molecules/10^6 β-actin
TGFBR2 expression (6 hours): 2582.67 molecules/10^6 β-actin
TGIF expression (6 hours): 8002.87 molecules/10^6 β-actin
TNFAIP1 expression (6 hours): 7127.73 molecules/10^6 β-actin
TNFRSF1A expression (6 hours): 20.58 molecules/10^6 β-actin
TNFSF10 expression (6 hours): 532.07 molecules/10^6 β-actin
TP53 expression (6 hours): 1005.63 molecules/10^6 β-actin
TRAF4 expression (6 hours): 91.86 molecules/10^6 β-actin
BCL2L1 expression (12 hours): 23160.22 molecules/10^6 β-actin
BCL2 expression (12 hours): 122.24 molecules/10^6 β-actin
CASP1 expression (12 hours): 113.28 molecules/10^6 β-actin
CCNA2 expression (12 hours): 211.27 molecules/10^6 β-actin
CCND3 expression (12 hours): 137.33 molecules/10^6 β-actin
CCNE1 expression (12 hours): 48.10 molecules/10^6 β-actin
CCNG1 expression (12 hours): 9794.14 molecules/10^6 β-actin
CDC2 expression (12 hours): 1566.64 molecules/10^6 β-actin
CDC25C expression (12 hours): 779.22 molecules/10^6 β-actin
CDK7 expression (12 hours): 2551.62 molecules/10^6 β-actin
CDK8 expression (12 hours): 605.61 molecules/10^6 β-actin
CDKN1A expression (12 hours): 129.69 molecules/10^6 β-actin
CDKN1B expression (12 hours): 310.81 molecules/10^6 β-actin
CDKN2A expression (12 hours): 403.27 molecules/10^6 β-actin
CDKN2C expression (12 hours): 770.42 molecules/10^6 β-actin
DAP expression (12 hours): 38087.74 molecules/10^6 β-actin
E2F4 expression (12 hours): 1673.69 molecules/10^6 β-actin
E2F5 expression (12 hours): 486.8 molecules/10^6 β-actin
JUN expression (12 hours): 5419.7 molecules/10^6 β-actin
MAD expression (12 hours): 7122.48 molecules/10^6 β-actin
MAP3K14 expression (12 hours): 158.89 molecules/10^6 β-actin
MYC expression (12 hours): 5205.65 molecules/10^6 β-actin
NFKB1 expression (12 hours): 6131.17 molecules/10^6 β-actin
PCNA expression (12 hours): 5756.09 molecules/10^6 β-actin
PTGS2 expression (12 hours): 2138.52 molecules/10^6 β-actin
RB1 expression (12 hours): 3301.83 molecules/10^6 β-actin
RBL2 expression (12 hours): 2698.44 molecules/10^6 β-actin
TGFBR2 expression (12 hours): 6799.19 molecules/10^6 β-actin
TGIF expression (12 hours): 13858.11 molecules/10^6 β-actin
TNFAIP1 expression (12 hours): 22572.81 molecules/10^6 β-actin
TNFRSF1A expression (12 hours): 107.17 molecules/10^6 β-actin
TNFSF10 expression (12 hours): 288.01 molecules/10^6 β-actin
TP53 expression (12 hours): 1663.37 molecules/10^6 β-actin
TRAF4 expression (12 hours): 222.84 molecules/10^6 β-actin
BCL2L1 expression (24 hours): 30504.02 molecules/10^6 β-actin
BCL2 expression (24 hours): 35.99 molecules/10^6 β-actin
CASP1 expression (24 hours): 142.49 molecules/10^6 β-actin
CCNA2 expression (24 hours): 241.1 molecules/10^6 β-actin
CCND3 expression (24 hours): 404.3 molecules/10^6 β-actin
CCNE1 expression (24 hours): 47.28 molecules/10^6 β-actin
CCNG1 expression (24 hours): 17499.15 molecules/10^6 β-actin
CDC2 expression (24 hours): 2054.95 molecules/10^6 β-actin
CDC25C expression (24 hours): 326.46 molecules/10^6 β-actin
CDK7 expression (24 hours): 9983.36 molecules/10^6 β-actin
CDK8 expression (24 hours): 1706.26 molecules/10^6 β-actin
CDKN1A expression (24 hours): 225.4 molecules/10^6 β-actin
CDKN1B expression (24 hours): 2092.37 molecules/10^6 β-actin
CDKN2A expression (24 hours): 163.48 molecules/10^6 β-actin
CDKN2C expression (24 hours): 904.8 molecules/10^6 β-actin
DAP expression (24 hours): 56353.65 molecules/10^6 β-actin
E2F4 expression (24 hours): 1582.79 molecules/10^6 β-actin
E2F5 expression (24 hours): 1178.84 molecules/10^6 β-actin
JUN expression (24 hours): 8677.27 molecules/10^6 β-actin
MAD expression (24 hours): 13204.24 molecules/10^6 β-actin
MAP3K14 expression (24 hours): 143.47 molecules/10^6 β-actin
MYC expression (24 hours): 11117.04 molecules/10^6 β-actin
NFKB1 expression (24 hours): 16919.99 molecules/10^6 β-actin
PCNA expression (24 hours): 12795.59 molecules/10^6 β-actin
PTGS2 expression (24 hours): 19413.37 molecules/10^6 β-actin
RB1 expression (24 hours): 5935.72 molecules/10^6 β-actin
RBL2 expression (24 hours): 8604.92 molecules/10^6 β-actin
TGFBR2 expression (24 hours): 15367.23 molecules/10^6 β-actin
TGIF expression (24 hours): 15445.36 molecules/10^6 β-actin
TNFAIP1 expression (24 hours): 39858.96 molecules/10^6 β-actin
TNFRSF1A expression (24 hours): 26.61 molecules/10^6 β-actin
TNFSF10 expression (24 hours): 151.09 molecules/10^6 β-actin
TP53 expression (24 hours): 4238.06 molecules/10^6 β-actin
TRAF4 expression (24 hours): 242.44 molecules/10^6 β-actin
BCL2L1 expression (48 hours): 21299.99 molecules/10^6 β-actin
BCL2 expression (48 hours): 22.29 molecules/10^6 β-actin
CASP1 expression (48 hours): 184.55 molecules/10^6 β-actin
CCNA2 expression (48 hours): 137.61 molecules/10^6 β-actin
CCND3 expression (48 hours): 641.75 molecules/10^6 β-actin
CCNE1 expression (48 hours): 146.61 molecules/10^6 β-actin
CCNG1 expression (48 hours): 25388.52 molecules/10^6 β-actin
CDC2 expression (48 hours): 497.44 molecules/10^6 β-actin
CDC25C expression (48 hours): 68.37 molecules/10^6 β-actin
CDK7 expression (48 hours): 19212.16 molecules/10^6 β-actin
CDK8 expression (48 hours): 3052.4 molecules/10^6 β-actin
CDKN1A expression (48 hours): 288.56 molecules/10^6 β-actin
CDKN1B expression (48 hours): 414.6 molecules/10^6 β-actin
CDKN2A expression (48 hours): 3382.09 molecules/10^6 β-actin
CDKN2C expression (48 hours): 650.26 molecules/10^6 β-actin
DAP expression (48 hours): 70325.95 molecules/10^6 β-actin
E2F4 expression (48 hours): 3738.46 molecules/10^6 β-actin
E2F5 expression (48 hours): 2144.23 molecules/10^6 β-actin
JUN expression (48 hours): 9510.55 molecules/10^6 β-actin
MAD expression (48 hours): 12999.27 molecules/10^6 β-actin
MAP3K14 expression (48 hours): 720.55 molecules/10^6 β-actin
MYC expression (48 hours): 8944.84 molecules/10^6 β-actin
NFKB1 expression (48 hours): 26524.38 molecules/10^6 β-actin
PCNA expression (48 hours): 6913.72 molecules/10^6 β-actin
PTGS2 expression (48 hours): 26516.88 molecules/10^6 β-actin
RB1 expression (48 hours): 6552.57 molecules/10^6 β-actin
RBL2 expression (48 hours): 11571.33 molecules/10^6 β-actin
TGFBR2 expression (48 hours): 5072 molecules/10^6 β-actin
TGIF expression (48 hours): 19849.69 molecules/10^6 β-actin
TNFAIP1 expression (48 hours): 49955.6 molecules/10^6 β-actin
TNFRSF1A expression (48 hours): 21.29 molecules/10^6 β-actin
TNFSF10 expression (48 hours): 79.65 molecules/10^6 β-actin
TP53 expression (48 hours): 2821 molecules/10^6 β-actin
TRAF4 expression (48 hours): 298.28 molecules/10^6 β-actin

— patent US20110034472A1, “Novel Compounds for Treatment of Cancer and Disorders Associated With Angiogenesis Function” (UNIVERSITY OF SOUTHERN CALIFORNIA, priority 2004, published 2011)
